Publication PMC9967108 (Viruses, 2023)

Assays:
SARS-CoV-2 Mpro = SARS-CoV-2 Mpro (Severe acute respiratory syndrome coronavirus 2, UniProt P0DTD1); assay: Mpro protease activity assay (IC50 test, fluorogenic substrate)
main protease = main protease (Severe acute respiratory syndrome coronavirus 2, UniProt P0DTD1); assay: Dissociation constant (KD) test by fluorescence titration; type: binding, SARS-CoV-2; details: inhibitor titration, intrinsic fluorescence, Scatchard plot

| Structure (SMILES) | IC50 (SARS-CoV-2 Mpro) | Kd (main protease) |
| --- | --- | --- |
| Cc1ccc(C2CC(c3cccs3)=NN2C(=O)CSc2nnc(CNC(=O)c3ccco3)n2-c2cccc(Cl)c2)cc1 (stereo not drawn) [LC24-20] | 32.9 µM | 20 ± 1.27 µM |
| Cc1ccc(CNC(=O)C2CC(n3cnnn3)CN2Cc2ccc(OCc3ccccc3)cc2)cc1 (stereo not drawn) [CB-25] | 22.7 µM | 10.8 ± 1.32 µM |
| Cc1cc(CNC(=O)Nn2cnc3ccccc32)ccc1F [CP-1] | 18.5 µM | 5.08 ± 0.38 µM |
